This passage reports IC50 results from patent US10829501B2 (BRISTOL-MYERS SQUIBB COMPANY, priority 2016, dated 2020).

In this test the target is ROCK2 (Homo sapiens, UniProt O75116). The experiment in a line: ROCK2 kinase inhibition assay (LABCHIP 3000 Reader, FITC peptide substrate).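 Also: rho kinase reaction read by separating phosphorylated from unphosphorylated peptide on chip, with inhibition of kinase activity computed per concentration across a dose-response series.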

A value given as a limit tells only on which side of the number the result lay.

Sequence of ROCK2 (O75116 whole entry, species assumed): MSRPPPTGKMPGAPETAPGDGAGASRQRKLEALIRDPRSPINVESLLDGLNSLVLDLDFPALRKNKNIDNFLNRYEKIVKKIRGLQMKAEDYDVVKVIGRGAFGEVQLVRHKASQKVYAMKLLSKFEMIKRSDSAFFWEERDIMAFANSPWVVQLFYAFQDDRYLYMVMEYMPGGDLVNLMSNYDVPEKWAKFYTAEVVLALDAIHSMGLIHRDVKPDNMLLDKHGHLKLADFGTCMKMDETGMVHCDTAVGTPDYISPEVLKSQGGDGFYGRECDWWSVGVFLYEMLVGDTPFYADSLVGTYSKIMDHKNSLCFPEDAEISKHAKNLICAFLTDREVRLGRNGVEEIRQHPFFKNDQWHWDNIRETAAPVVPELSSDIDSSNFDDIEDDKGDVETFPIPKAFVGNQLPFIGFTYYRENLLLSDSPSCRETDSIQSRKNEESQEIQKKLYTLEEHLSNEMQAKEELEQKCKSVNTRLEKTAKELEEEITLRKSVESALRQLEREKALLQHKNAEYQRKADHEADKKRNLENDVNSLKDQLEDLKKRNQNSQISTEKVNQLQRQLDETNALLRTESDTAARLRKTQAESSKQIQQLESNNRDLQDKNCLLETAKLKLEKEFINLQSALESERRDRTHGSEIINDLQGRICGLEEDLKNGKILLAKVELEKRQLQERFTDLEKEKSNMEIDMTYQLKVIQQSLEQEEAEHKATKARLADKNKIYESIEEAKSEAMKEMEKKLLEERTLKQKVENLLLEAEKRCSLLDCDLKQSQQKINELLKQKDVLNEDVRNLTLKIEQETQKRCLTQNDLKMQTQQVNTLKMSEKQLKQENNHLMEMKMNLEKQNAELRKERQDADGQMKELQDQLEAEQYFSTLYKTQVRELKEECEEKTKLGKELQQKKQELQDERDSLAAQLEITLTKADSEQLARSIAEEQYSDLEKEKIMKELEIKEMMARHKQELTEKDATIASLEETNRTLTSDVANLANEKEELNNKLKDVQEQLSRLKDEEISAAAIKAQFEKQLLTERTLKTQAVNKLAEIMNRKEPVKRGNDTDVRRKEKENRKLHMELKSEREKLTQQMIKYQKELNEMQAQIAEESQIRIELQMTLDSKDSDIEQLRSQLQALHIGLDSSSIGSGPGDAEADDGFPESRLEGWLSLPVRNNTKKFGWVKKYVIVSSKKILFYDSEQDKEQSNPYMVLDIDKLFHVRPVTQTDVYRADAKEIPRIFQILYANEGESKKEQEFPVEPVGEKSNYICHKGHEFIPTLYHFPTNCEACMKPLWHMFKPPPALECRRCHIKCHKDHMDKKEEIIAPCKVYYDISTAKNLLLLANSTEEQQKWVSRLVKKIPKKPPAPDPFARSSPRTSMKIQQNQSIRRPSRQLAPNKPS

For `CC(C)(O)COc1ccc2c(C(=O)NC3CC4(C3)CC(Oc3cc(C5CC5)ccc3C(N)=O)C4)cnn2c1C1CC1` (stereo not drawn) [Example 274, N-(6-(2-carbamoyl-5-cyclopropylphenoxy)spiro[3.3]heptan-2-yl)-7-cyclopropyl-6-(2-hydroxy-2-methylpropoxy)pyrazolo[1,5-a]pyridine-3-carboxamide], the IC50 – broadly, the midpoint of a concentration-inhibition curve – was less than 5 nM.
Turning to `Cn1cc(-c2ccc(C(N)=O)c(OC3CC4(CC(NC(=O)c5cnn6cc(OCC(C)(C)O)ccc56)C4)C3)c2)cn1` (stereo not drawn) [Example 275, N-(6-(2-carbamoyl-5-(1-methyl-1H-pyrazol-4-yl)phenoxy)spiro[3.3]heptan-2-yl)-6-(2-hydroxy-2-methylpropoxy)pyrazolo[1,5-a]pyridine-3-carboxamide], the half-inhibitory concentration (IC50) lay in the range of 5 to 50 nM.
Compound `CC(C)(O)COc1ccc2c(C(=O)NC3CC4(C3)CC(Oc3cc(-c5cnn(C6CC6)c5)ccc3C(N)=O)C4)cnn2c1` (stereo not drawn) [Example 277, N-(6-(2-carbamoyl-5-(1-cyclopropyl-1H-pyrazol-4-yl)phenoxy)spiro[3.3]heptan-2-yl)-6-(2-hydroxy-2-methylpropoxy)pyrazolo[1,5-a]pyridine-3-carboxamide] displayed a half-maximal inhibitory concentration (IC50) of 5 to 50 nM.
On to `CC(C)(O)COc1ccc2c(C(=O)NC3CC4(C3)CC(Oc3cc(-c5cnn(C6CCOCC6)c5)ccc3C(N)=O)C4)cnn2c1` (stereo not drawn) [Example 278, N-(6-(2-carbamoyl-5-(1-(tetrahydro-2H-pyran-4-yl)-1H-pyrazol-4-yl)phenoxy)spiro[3.3]heptan-2-yl)-6-(2-hydroxy-2-methylpropoxy)pyrazolo[1,5-a]pyridine-3-carboxamide], for which the IC50 was 5 to 50 nM.
With `CC(C)(O)COc1ccc2c(C(=O)NC3CC4(C3)CC(Oc3cc(-c5cnn(CC(C)(C)O)c5)ccc3C(N)=O)C4)cnn2c1` (stereo not drawn) [Example 279, N-(6-(2-carbamoyl-5-(1-(2-hydroxy-2-methylpropyl)-1H-pyrazol-4-yl)phenoxy)spiro[3.3]heptan-2-yl)-6-(2-hydroxy-2-methylpropoxy)pyrazolo[1,5-a]pyridine-3-carboxamide], the IC50 is 5 to 50 nM.
Compound `CC(C)(O)COc1ccc2c(C(=O)NC3CC4(C3)CC(Oc3cc(-c5ccc(C(N)=O)c(F)c5)ccc3C(N)=O)C4)cnn2c1` (stereo not drawn) [Example 280, 3-fluoro-3′-((6-(6-(2-hydroxy-2-methylpropoxy)pyrazolo[1,5-a]pyridine-3-carboxamido)spiro[3.3]heptan-2-yl)oxy)-[1,1′-biphenyl]-4,4′-dicarboxamide] came in with an IC50 of 5 to 50 nM.
`CC(C)(O)COc1ccc2c(C(=O)NC3CC4(C3)CC(Oc3cc(-c5ccc(CN6CCOCC6)s5)ccc3C(N)=O)C4)cnn2c1` (stereo not drawn) [Example 281, N-(6-(2-carbamoyl-5-(5-(morpholinomethyl)thiophen-2-yl)phenoxy)spiro[3.3]heptan-2-yl)-6-(2-hydroxy-2-methylpropoxy)pyrazolo[1,5-a]pyridine-3-carboxamide] showed an IC50 of 5 to 50 nM.
The compound `CCOC(=O)Cc1cccc(-c2ccc(C(N)=O)c(OC3CC4(CC(NC(=O)c5cnn6cc(OCC(C)(C)O)ccc56)C4)C3)c2)c1` (stereo not drawn) [Example 282, ethyl 2-(4′-carbamoyl-3′-((6-(6-(2-hydroxy-2-methylpropoxy)pyrazolo[1,5-a]pyridine-3-carboxamido)spiro[3.3]heptan-2-yl)oxy)-[1,1′-biphenyl]-3-yl)acetate] yielded a half-maximal inhibitory concentration (IC50) of 5 to 50 nM.
The figure for `CC(C)(O)COc1ccc2c(C(=O)NC3CC4(C3)CC(Oc3cc(-c5cc(F)c(F)c(F)c5)ccc3C(N)=O)C4)cnn2c1` (stereo not drawn) [Example 283, N-(6-((4-carbamoyl-3′,4′,5′-trifluoro-[1,1′-biphenyl]-3-yl)oxy)spiro[3.3]heptan-2-yl)-6-(2-hydroxy-2-methylpropoxy)pyrazolo[1,5-a]pyridine-3-carboxamide] is 50 to 250 nM.
`CC(C)(O)COc1ccc2c(C(=O)NC3CC4(C3)CC(Oc3cc(-c5cccc(S(C)(=O)=O)c5)ccc3C(N)=O)C4)cnn2c1` (stereo not drawn) [Example 284, N-(6-((4-carbamoyl-3′-(methylsulfonyl)-[1,1′-biphenyl]-3-yl)oxy)spiro[3.3]heptan-2-yl)-6-(2-hydroxy-2-methylpropoxy)pyrazolo[1,5-a]pyridine-3-carboxamide] showed an IC50 of less than 5 nM.
`CN(C)CCNC(=O)c1cccc(-c2ccc(C(N)=O)c(OC3CC4(CC(NC(=O)c5cnn6cc(OCC(C)(C)O)ccc56)C4)C3)c2)c1` (stereo not drawn) [Example 285, N3-(2-(dimethylamino)ethyl)-3′-((6-(6-(2-hydroxy-2-methylpropoxy)pyrazolo[1,5-a]pyridine-3-carboxamido)spiro[3.3]heptan-2-yl)oxy)-[1,1′-biphenyl]-3,4′-dicarboxamide] had an IC50 of 5 to 50 nM.
As to `CC(C)(O)COc1ccc2c(C(=O)NC3CC4(C3)CC(Oc3cc(-c5ccc(S(C)(=O)=O)cc5)ccc3C(N)=O)C4)cnn2c1` (stereo not drawn) [Example 286, N-(6-((4-carbamoyl-4′-(methylsulfonyl)-[1,1′-biphenyl]-3-yl)oxy)spiro[3.3]heptan-2-yl)-6-(2-hydroxy-2-methylpropoxy)pyrazolo[1,5-a]pyridine-3-carboxamide], the IC50 fell in the range of 5 to 50 nM.
Then `CNC(=O)c1cccc(-c2ccc(C(N)=O)c(OC3CC4(CC(NC(=O)c5cnn6cc(OCC(C)(C)O)ccc56)C4)C3)c2)c1` (stereo not drawn) [Example 287, 3′-((6-(6-(2-hydroxy-2-methylpropoxy)pyrazolo[1,5-a]pyridine-3-carboxamido)spiro[3.3]heptan-2-yl)oxy)-N3-methyl-[1,1′-biphenyl]-3,4′-dicarboxamide], with 5 to 50 nM; and `CC(C)(O)COc1ccc2c(C(=O)NC3CC4(C3)CC(Oc3cc(-c5cccc(OCCCN)c5)ccc3C(N)=O)C4)cnn2c1` (stereo not drawn) [Example 288, N-(6-((3′-(3-aminopropoxy)-4-carbamoyl-[1,1′-biphenyl]-3-yl)oxy)spiro[3.3]heptan-2-yl)-6-(2-hydroxy-2-methylpropoxy)pyrazolo[1,5-a]pyridine-3-carboxamide], with 5 to 50 nM.
Then `CC(C)(O)COc1ccc2c(C(=O)NC3CC4(C3)CC(Oc3cc(-c5cccc(C(N)=O)c5)ccc3C(N)=O)C4)cnn2c1` (stereo not drawn) [Example 289, 3′-((6-(6-(2-hydroxy-2-methylpropoxy)pyrazolo[1,5-a]pyridine-3-carboxamido)spiro[3.3]heptan-2-yl)oxy)-[1,1′-biphenyl]-3,4′-dicarboxamide], with less than 5 nM; and `CC(C)(O)COc1ccc2c(C(=O)NC3CC4(C3)CC(Oc3cc(/C=C/CCO)ccc3C(N)=O)C4)cnn2c1` (stereo not drawn) [Example 290, (E)-N-(6-(2-carbamoyl-5-(4-hydroxybut-1-en-1-yl)phenoxy)spiro[3.3]heptan-2-yl)-6-(2-hydroxy-2-methylpropoxy)pyrazolo[1,5-a]pyridine-3-carboxamide], with 5 to 50 nM.
In the case of `CC(C)(O)COc1ccc2c(C(=O)NC3CC4(C3)CC(Oc3cc(-c5cccc(/C=C/C(=O)O)c5)ccc3C(N)=O)C4)cnn2c1` (stereo not drawn) [Example 291, (E)-3-(4′-carbamoyl-3′-((6-(6-(2-hydroxy-2-methylpropoxy)pyrazolo[1,5-a]pyridine-3-carboxamido)spiro[3.3]heptan-2-yl)oxy)-[1,1′-biphenyl]-3-yl)acrylic acid], the IC50 was in the range of 5 to 50 nM.
For `CC(C)(O)COc1ccc2c(C(=O)NC3CC4(C3)CC(Oc3cc(-c5ccc(F)c(C(N)=O)c5)ccc3C(N)=O)C4)cnn2c1` (stereo not drawn) [Example 292, 4-fluoro-3′-((6-(6-(2-hydroxy-2-methylpropoxy)pyrazolo[1,5-a]pyridine-3-carboxamido)spiro[3.3]heptan-2-yl)oxy)-[1,1′-biphenyl]-3,4′-dicarboxamide], the IC50 was less than 5 nM.
The figure for `COCCNC(=O)c1cccc(-c2ccc(C(N)=O)c(OC3CC4(CC(NC(=O)c5cnn6cc(OCC(C)(C)O)ccc56)C4)C3)c2)c1` (stereo not drawn) [Example 293, 3′-((6-(6-(2-hydroxy-2-methylpropoxy)pyrazolo[1,5-a]pyridine-3-carboxamido)spiro[3.3]heptan-2-yl)oxy)-N3-(2-methoxyethyl)-[1,1′-biphenyl]-3,4′-dicarboxamide] is 5 to 50 nM.
`CC(C)(O)COc1ccc2c(C(=O)NC3CC4(C3)CC(Oc3cc(-c5cccc(C(=O)N6CCOCC6)c5)ccc3C(N)=O)C4)cnn2c1` (stereo not drawn) [Example 294, N-(6-((4-carbamoyl-3′-(morpholine-4-carbonyl)-[1,1′-biphenyl]-3-yl)oxy)spiro[3.3]heptan-2-yl)-6-(2-hydroxy-2-methylpropoxy)pyrazolo[1,5-a]pyridine-3-carboxamide] showed a concentration for half-maximal inhibition (IC50) of 5 to 50 nM.
As for `CNC(=O)c1cc(-c2ccc(C(N)=O)c(OC3CC4(CC(NC(=O)c5cnn6cc(OCC(C)(C)O)ccc56)C4)C3)c2)ccc1F` (stereo not drawn) [Example 295, 4-fluoro-3′-((6-(6-(2-hydroxy-2-methylpropoxy)pyrazolo[1,5-a]pyridine-3-carboxamido)spiro[3.3]heptan-2-yl)oxy)-N3-methyl-[1,1′-biphenyl]-3,4′-dicarboxamide], the IC50 was in the range of 5 to 50 nM.
In turn, `CC(C)(O)COc1ccc2c(C(=O)NC3CC4(C3)CC(Oc3cc(-c5cccc(C(=O)O)c5)ccc3C(N)=O)C4)cnn2c1` (stereo not drawn) [Example 296, 4′-carbamoyl-3′-((6-(6-(2-hydroxy-2-methylpropoxy)pyrazolo[1,5-a]pyridine-3-carboxamido)spiro[3.3]heptan-2-yl)oxy)-[1,1′-biphenyl]-3-carboxylic acid] showed an IC50 of 5 to 50 nM.
The compound `CC(C)(O)COc1ccc2c(C(=O)NC3CC4(C3)CC(Oc3cc(-c5cccc(S(=O)(=O)NCCO)c5)ccc3C(N)=O)C4)cnn2c1` (stereo not drawn) [Example 297, N-(6-((4-carbamoyl-3′-(N-(2-hydroxyethyl)sulfamoyl)-[1,1′-biphenyl]-3-yl)oxy)spiro[3.3]heptan-2-yl)-6-(2-hydroxy-2-methylpropoxy)pyrazolo[1,5-a]pyridine-3-carboxamide] had a half-inhibitory concentration (IC50) of less than 5 nM.
The compound `CC(C)(O)COc1ccc2c(C(=O)NC3CC4(C3)CC(Oc3cc(-c5cccc(S(N)(=O)=O)c5)ccc3C(N)=O)C4)cnn2c1` (stereo not drawn) [Example 298, N-(6-((4-carbamoyl-3′-sulfamoyl-[1,1′-biphenyl]-3-yl)oxy)spiro[3.3]heptan-2-yl)-6-(2-hydroxy-2-methylpropoxy)pyrazolo[1,5-a]pyridine-3-carboxamide] returned an IC50 of less than 5 nM.
